pEC50, pIC50, pKi: −log10 of the molar value.
Columns and labels:
Mu-type opioid receptor [1] = biological target: T1, Mu-type opioid receptor (Homo sapiens, UniProt P35372); assay: biochemical
Description: Agonist activity at human mu opioid receptor expressed in CHO cells assessed as stimulation of [35S]GTPgammaS binding

Mu-type opioid receptor [2] = biological target: T1, Mu-type opioid receptor; assay: biochemical; remark: listed apart in the source
[3] = biological target: T2, Delta-type opioid receptor (Homo sapiens, UniProt P41143); assay: biochemical
Mu-type opioid receptor [4] = biological target: T1, Mu-type opioid receptor; assay: biochemical; remark: listed apart in the source
[5] = biological target: T3, Kappa-type opioid receptor (Homo sapiens, UniProt P41145); assay: Displacement of [3H]U69,593 from human kappa opioid receptor expressed in CHO cells after 60 mins by scintillation counting
[6] = biological target: T3, Kappa-type opioid receptor; assay: Agonist activity at human kappa opioid receptor expressed in CHO cells assessed as stimulation of [35S]GTPgammaS binding
[7] = biological target: T3, Kappa-type opioid receptor; conditions: CHO, 10 uM
[8] = biological target: T2, Delta-type opioid receptor; assay: biochemical; remark: listed apart in the source
Description: Agonist activity at human delta opioid receptor expressed in CHO cells assessed as stimulation of [35S]GTPgammaS binding

[9] = biological target: T2, Delta-type opioid receptor; assay: biochemical; remark: listed apart in the source
[10] = biological target: T3, Kappa-type opioid receptor; assay: Antagonist activity against human kappa opioid receptor expressed in CHO cells assessed as inhibition of U50488-stimulated [35S]GTPgammaS binding
Mu-type opioid receptor [11] = biological target: T1, Mu-type opioid receptor; conditions: CHO, 10 uM

T2 sequence (P41143 whole entry): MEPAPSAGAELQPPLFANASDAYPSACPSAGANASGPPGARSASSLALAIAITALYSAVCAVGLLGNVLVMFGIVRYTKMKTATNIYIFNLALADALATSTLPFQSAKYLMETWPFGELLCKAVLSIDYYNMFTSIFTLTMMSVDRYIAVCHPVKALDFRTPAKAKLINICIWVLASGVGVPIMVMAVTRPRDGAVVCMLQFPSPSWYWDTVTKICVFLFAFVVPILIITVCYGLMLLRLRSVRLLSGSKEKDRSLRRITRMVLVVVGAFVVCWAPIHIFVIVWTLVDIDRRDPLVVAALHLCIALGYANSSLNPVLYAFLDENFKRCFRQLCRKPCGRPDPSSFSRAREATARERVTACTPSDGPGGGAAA
T3 sequence (P41145 whole entry): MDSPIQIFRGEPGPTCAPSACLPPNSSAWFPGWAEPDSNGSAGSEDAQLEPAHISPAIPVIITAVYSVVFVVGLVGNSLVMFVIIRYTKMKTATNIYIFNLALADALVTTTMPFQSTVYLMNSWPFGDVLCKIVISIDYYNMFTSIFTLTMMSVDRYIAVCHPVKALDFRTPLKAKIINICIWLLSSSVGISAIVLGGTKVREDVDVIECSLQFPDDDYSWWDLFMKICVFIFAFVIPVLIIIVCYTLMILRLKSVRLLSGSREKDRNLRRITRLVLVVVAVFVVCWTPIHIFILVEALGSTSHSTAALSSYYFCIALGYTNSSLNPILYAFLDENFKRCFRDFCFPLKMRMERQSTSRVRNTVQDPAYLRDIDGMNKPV
T1 sequence (P35372 whole entry): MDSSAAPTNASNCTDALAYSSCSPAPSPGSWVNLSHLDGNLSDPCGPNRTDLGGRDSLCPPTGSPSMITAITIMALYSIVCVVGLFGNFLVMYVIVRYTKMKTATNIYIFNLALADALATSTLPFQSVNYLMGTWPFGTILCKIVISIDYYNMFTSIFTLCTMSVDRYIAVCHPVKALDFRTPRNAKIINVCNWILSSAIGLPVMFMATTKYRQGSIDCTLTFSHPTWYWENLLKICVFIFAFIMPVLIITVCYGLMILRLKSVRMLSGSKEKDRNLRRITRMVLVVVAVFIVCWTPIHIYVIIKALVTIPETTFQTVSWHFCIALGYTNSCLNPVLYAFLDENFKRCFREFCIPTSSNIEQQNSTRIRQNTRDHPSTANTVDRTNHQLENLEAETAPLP

| Compound | pKi (Mu-type opioid receptor [2]) | pKi [3] | pIC50 (Mu-type opioid receptor [4]) | pKi [5] | pIC50 [9] | also measured |
| --- | --- | --- | --- | --- | --- | --- |
| CN1CC[C@]23c4c5ccc(C(N)=O)c4O[C@H]2C(=O)CC[C@H]3[C@H]1C5 | 8.92 | 6.59 | – | – | – | pEC50 (Mu-type opioid receptor [1]): 6.96 |
| NC(=O)c1ccc2c3c1O[C@H]1CCC[C@@]4(O)[C@@H](C2)N(CC2CC2)CC[C@]314 | 8.60 | 6.20 | 7.27 | 7.80 | – | – |
| CN1CC[C@]23CC(=O)CC[C@H]2[C@H]1Cc1ccc(C(N)=O)c(O)c13 | 9.52 | 8.08 | – | 8.64 | – | pEC50 (Mu-type opioid receptor [1]): 8.80; pEC50 [6]: 8.41 |
| NC(=O)c1ccc2c(c1O)[C@]13CCN(CC4CCC4)[C@H](C2)[C@]1(O)CC[C@@H](O)C3 | – | – | – | – | 6.89 | Imax [7]: 25%; pEC50 [8]: 8.43 |
| NC(=O)c1ccc2c(c1O)[C@]13CCN(CC4CCC4)[C@H](C2)[C@]1(O)CC[C@H](O)C3 | – | – | – | – | – | Imax [7]: 36% |
| NC(=O)c1ccc2c(c1O)[C@@]13CCCC[C@@]1(O)[C@@H](C2)N(CC1CC1)CC3 | – | – | – | – | 8.24 | pIC50 [10]: 7.24; pEC50 [6]: 8.64 |
| NC(=O)c1ccc2c3c1O[C@H]1c4[nH]c5ccccc5c4C[C@@]4(O)[C@@H](C2)N(CC2CC2)CC[C@]314 | 7.34 | 9.52 | – | 7.33 | 9.11 | – |
| NC(=O)c1ccc2c(c1O)[C@]13CCN(CC4CC4)[C@H](C2)[C@]1(O)CCC(=O)C3 | – | – | 9.06 | – | 8.16 | pIC50 [10]: 7.42; pEC50 [6]: 8.48; pEC50 [8]: 8.74 |
| NC(=O)c1ccc2c3c1O[C@H]1[C@@H](O)CC[C@@]4(O)[C@@H](C2)N(CC2CCC2)CC[C@]314 | – | – | – | – | – | Imax (Mu-type opioid receptor [11]): 56% |
| C[N+]1(CC2CC2)CC[C@]23c4c5ccc(C(N)=O)c4O[C@H]2C(=O)CC[C@@]3(O)[C@H]1C5 (stereo partly specified) | 7.43 | < 5.00 | – | – | – | – |
| NC(=O)c1ccc2c3c1O[C@H]1C(=O)CC[C@@]4(O)[C@@H](C2)N(CC2CC2)CC[C@]314 | – | – | 6.57 | – | – | pEC50 (Mu-type opioid receptor [1]): 8.31 |
| Oc1ccc2c3c1O[C@H]1CCC[C@@]4(O)[C@@H](C2)N(CC2CC2)CC[C@]314 | 9.62 | 7.10 | 8.36 | 9.62 | – | pIC50 [10]: 7.89 |
| NC(=O)c1ccc2c(c1O)[C@]13CCN(CC4CC4)[C@H](C2)[C@]1(O)Cc1c([nH]c2ccccc12)C3 | 9.29 | 10.60 | – | 9.09 | 10.10 | pIC50 [10]: 7.55 |
| C[N+]1(CC2CC2)CC[C@]23c4c5ccc(O)c4O[C@H]2C(=O)CC[C@@]3(O)[C@H]1C5 (stereo partly specified) [NALTREXONE METHIODIDE] | – | – | 6.77 | – | – | Imax [7]: 60%; pEC50 [6]: 8.05 |

— ChEMBL document CHEMBL1153960, “Syntheses of novel high affinity ligands for opioid receptors” (Bioorg Med Chem Lett, 2009)
